Laboratory results published in ChEMBL document CHEMBL5360605, “Novel Lactams as CBL-B Inhibitors for Treating Cancer” (ACS Med Chem Lett, 2023).

Molecular target: E3 ubiquitin-protein ligase CBL-B (Homo sapiens, UniProt Q13191)
Experiment: Inhibition of biotin-tagged Cbl-b (unknown origin) assessed as reduction in LCK ubiquitination using His-LCK as substrate preincubated for 60 mins followed by substrate addition in presence of ATP, MgCl2 and measured after 90 mins by HTRF assay

Sequence of E3 ubiquitin-protein ligase CBL-B (Q13191 whole entry): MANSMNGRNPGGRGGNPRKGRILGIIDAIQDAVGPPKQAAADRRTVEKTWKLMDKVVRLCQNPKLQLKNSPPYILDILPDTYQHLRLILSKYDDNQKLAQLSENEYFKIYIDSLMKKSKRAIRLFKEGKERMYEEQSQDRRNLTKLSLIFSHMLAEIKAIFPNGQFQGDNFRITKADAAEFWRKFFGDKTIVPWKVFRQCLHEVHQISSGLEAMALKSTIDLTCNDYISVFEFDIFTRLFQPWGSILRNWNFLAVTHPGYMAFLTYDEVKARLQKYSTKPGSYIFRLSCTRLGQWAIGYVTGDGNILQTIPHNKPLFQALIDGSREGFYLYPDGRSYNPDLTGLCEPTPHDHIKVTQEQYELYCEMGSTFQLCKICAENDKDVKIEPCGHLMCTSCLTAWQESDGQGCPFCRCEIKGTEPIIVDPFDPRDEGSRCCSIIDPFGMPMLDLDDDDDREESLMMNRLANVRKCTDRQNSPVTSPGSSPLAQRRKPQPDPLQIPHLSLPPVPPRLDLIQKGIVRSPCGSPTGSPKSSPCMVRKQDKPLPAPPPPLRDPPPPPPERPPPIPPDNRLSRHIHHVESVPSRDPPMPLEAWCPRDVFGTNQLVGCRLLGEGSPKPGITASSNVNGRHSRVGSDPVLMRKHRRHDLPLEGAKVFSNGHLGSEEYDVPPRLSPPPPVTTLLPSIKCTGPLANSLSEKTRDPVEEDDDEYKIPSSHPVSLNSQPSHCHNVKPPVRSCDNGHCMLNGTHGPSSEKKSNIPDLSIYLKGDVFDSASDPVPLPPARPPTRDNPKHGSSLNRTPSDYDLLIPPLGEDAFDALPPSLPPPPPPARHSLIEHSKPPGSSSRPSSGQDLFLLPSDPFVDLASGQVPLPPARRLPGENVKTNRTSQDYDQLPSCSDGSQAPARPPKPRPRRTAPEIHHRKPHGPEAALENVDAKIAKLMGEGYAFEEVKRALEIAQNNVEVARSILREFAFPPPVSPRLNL

Structure (SMILES) | IC50
Cn1cnnc1C(c1cccc(N2Cc3c(cc(CNC4(C)CCC4)cc3C(F)(F)F)C2=O)c1)[C@H]1C[C@H](CC#N)C1 (stereo partly specified) | 3 nM
C[C@H](NC1(C)CCC1)c1cc2c(c(C(F)(F)F)c1)CN(c1cccc([C@@H](c3nncn3C)C3COC3)c1)C2=O | 4 nM
CCOc1cc([C@]2(c3nncn3C)C[C@@H](C)C2)cc(N2Cc3c(cc(CNC4(C)CCC4)cc3C(F)(F)F)C2=O)n1 | 4 nM
Cn1cnnc1[C@]1(c2cccc(N3Cc4c(cc(CNC5(C)CCC5)cc4C(F)(F)F)C3=O)c2)C[C@H](Cl)C1 | 4 nM
C[C@H](NC1(C)CCC1)c1cc(Cl)c2c(c1)C(=O)N(c1cccc([C@]3(c4nncn4C)C[C@H](F)C3)c1)C2 | 4 nM
CO[C@H]1C[C@](c2cccc(N3Cc4c(cc(CNC5CC6CC6C5)cc4C(F)(F)F)C3=O)c2)(c2nncn2C)C1 (stereo partly specified) | 4 nM
